The values below come from patent US10087156B2, “Methods and compositions related to retinoid receptor-selective pathway” (Sanford Burnham Prebys Medical Discovery Institute, priority 2010, dated 2018).

SMILES strings stand for the structures.

For assay [1], the system named is COX. Conditions: Haanen, 2001; cited from earlier work.
The subject of assay [2] is HepG2 liver cancer cells. The assay can be described thus: PARP cleavage and caspase-8 activation with TNFα by immunoblotting. The class given is cell-based. Conditions: HepG2 cells, SR11237 1 μM, 1 hr pretreatment. The method, then: ZR-75-1 cells were treated with TNFα and/or Sulindac (75 μM) or K-80003 (50 μM) for 6 hr and analyzed by immunoblotting.
HepG2 cells cultured in medium with 1% FBS were treated with SR11237 (1 μM) for 1 hr, then TNFα (10 ng/ml) and/or Sulindac (75 μM) for 4 hr, and analyzed by immunoblotting. HepG2 cells transfected with control or RXRα siRNA were treated with TNFα and/or Sulindac and analyzed by immunoblotting.

Turning to `CC1=C(CC(=O)O)c2cc(F)ccc2/C1=C/c1ccc([S+](C)[O-])cc1` (stereo not drawn) [sulindac sulfoxide], in assay [1], the COX-inhibiting activity result is on record as “no COX-inhibiting activity”. In the case of `CC1=C(CC(=O)O)c2cc(F)ccc2/C1=C\c1ccc(S(C)(=O)=O)cc1` [sulindac sulfone], in assay [1], the COX-inhibiting activity result is reported as “no COX-inhibiting activity”. Turning to `CC1(C)CCC(C)(C)c2cc(C3(c4ccc(C(=O)O)cc4)OCCO3)ccc21` [SR11237], the “suppression of the apoptotic effect of Sulindac/TNFα combination” value in assay [2] is on record as “partially suppressed”.
